# Experimental data published in PubChem BioAssay (NCI).
#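 All cell lines were grown in 96-well plates and treated with compound for 48 hours. GI50 marks 50% less growth. TGI is the concentration that stops growth completely.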
# Legend:
# Assay in all cases: NCI-60 cell line screen, 48 h
# [1] = tested on: SK-OV-3 ovarian
# [2] = tested on: MCF7 breast
# [3] = tested on: EKVX NSCLC
# [4] = tested on: SK-MEL-28 melanoma
# [5] = tested on: OVCAR-3 ovarian
# [6] = tested on: HCT-116 colon
# [7] = tested on: MDA-MB-435
# [8] = tested on: MDA-N
# [9] = tested on: SW-620 colon
# [10] = tested on: COLO 205 colon
# [11] = tested on: SF-268 CNS
# [12] = tested on: A549 NSCLC
# [13] = tested on: OVCAR-8 ovarian
# [14] = tested on: K-562 leukemia
# [15] = tested on: SNB-19 CNS
# [16] = tested on: UACC-62 melanoma
# [17] = tested on: RXF 393 renal
# [18] = tested on: HL-60(TB) leukemia
# [19] = tested on: IGROV1 ovarian
# [20] = tested on: 786-0 renal
# [21] = tested on: MALME-3M melanoma
# [22] = tested on: UACC-257 melanoma
# [23] = tested on: SF-295 CNS
# [24] = tested on: CAKI-1 renal
# [25] = tested on: LOX IMVI melanoma
# [26] = tested on: SK-MEL-2 melanoma
# [27] = tested on: NCI/ADR-RES ovarian
# [28] = tested on: U251 CNS
# [29] = tested on: HS 578T breast
# [30] = tested on: BT-549 breast
# [31] = tested on: PC-3 prostate
# [32] = tested on: HOP-92 NSCLC
# [33] = tested on: HOP-62 NSCLC
# [34] = tested on: T-47D breast
# [35] = tested on: HT29 colon
# [36] = tested on: OVCAR-5 ovarian
# [37] = tested on: ACHN renal
# [38] = tested on: OVCAR-4 ovarian
# [39] = tested on: SNB-75 CNS
# [40] = tested on: CCRF-CEM leukemia
# [41] = tested on: SF-539 CNS
# [42] = tested on: SK-MEL-5 melanoma
# [43] = tested on: DU-145 prostate
# [44] = tested on: M14 melanoma
# [45] = tested on: A498 renal
# [46] = tested on: HCT-15 colon
# [47] = tested on: HCC-2998 colon
# [48] = tested on: RPMI-8226 leukemia
# [49] = tested on: NCI-H522 lung
# [50] = tested on: MOLT-4 leukemia
# [51] = tested on: KM12 colon
# [52] = tested on: NCI-H460 lung
# [53] = tested on: MDA-MB-231 breast
# [54] = tested on: SN12C renal
# [55] = tested on: NCI-H226 lung
# [56] = tested on: NCI-H23 lung
# [57] = tested on: TK-10 renal
# [58] = tested on: UO-31 renal
# [59] = tested on: SR leukemia
smiles,measurement,setting,value
Cc1cc2c3c(nc4ccccc42)C(=O)c2cccnc2-c3n1,GI50,[1],0.25 µM
same,TGI,[1],1.07 µM
same,GI50,[2],0.0212 µM
same,TGI,[2],0.156 µM
same,GI50,[3],0.707 µM
same,TGI,[3],2.49 µM
same,GI50,[4],0.976 µM
same,TGI,[4],2.68 µM
same,TGI,[5],0.0263 µM
same,GI50,[6],< 0.0416 µM
same,TGI,[6],0.11 µM
same,GI50,[7],0.162 µM
same,TGI,[7],0.332 µM
same,GI50,[8],0.152 µM
same,TGI,[8],0.294 µM
same,GI50,[9],0.17 µM
same,TGI,[9],1.01 µM
same,GI50,[10],1.13 µM
same,TGI,[10],2.45 µM
same,GI50,[11],0.786 µM
same,TGI,[11],> 19.9 µM
same,GI50,[12],0.372 µM
same,TGI,[12],1.84 µM
same,GI50,[13],0.453 µM
same,GI50,[14],0.109 µM
same,TGI,[14],0.345 µM
same,GI50,[15],0.255 µM
same,TGI,[15],1.66 µM
same,GI50,[16],0.284 µM
same,TGI,[16],0.936 µM
same,GI50,[17],1.17 µM
same,TGI,[17],3.19 µM
same,GI50,[18],0.135 µM
same,TGI,[18],1.36 µM
same,GI50,[19],0.0658 µM
same,TGI,[19],0.383 µM
same,GI50,[20],0.148 µM
same,TGI,[20],0.823 µM
same,GI50,[21],0.426 µM
same,TGI,[21],1.39 µM
same,GI50,[22],0.169 µM
same,TGI,[22],0.55 µM
same,GI50,[23],0.541 µM
same,TGI,[23],1.91 µM
same,GI50,[24],0.404 µM
same,TGI,[24],2.67 µM
same,GI50,[25],0.144 µM
same,TGI,[25],0.524 µM
same,GI50,[26],1.48 µM
same,TGI,[26],3.82 µM
same,GI50,[27],0.489 µM
same,GI50,[28],0.413 µM
same,TGI,[28],6.93 µM
same,GI50,[29],1.69 µM
same,TGI,[29],> 21.9 µM
same,GI50,[30],1.15 µM
same,TGI,[30],2.41 µM
same,GI50,[31],0.304 µM
same,TGI,[31],3.04 µM
same,GI50,[32],0.941 µM
same,TGI,[32],8.52 µM
same,GI50,[33],0.316 µM
same,TGI,[33],2.23 µM
same,GI50,[34],0.749 µM
same,TGI,[34],4.13 µM
same,GI50,[35],0.663 µM
same,TGI,[35],2.03 µM
same,GI50,[36],1.09 µM
same,TGI,[36],2.33 µM
same,GI50,[37],0.0327 µM
same,TGI,[37],1.45 µM
same,GI50,[38],1.28 µM
same,TGI,[38],4.27 µM
same,GI50,[39],0.833 µM
same,TGI,[39],3.09 µM
same,GI50,[40],0.171 µM
same,TGI,[40],1.4 µM
same,GI50,[41],0.495 µM
same,TGI,[41],2.21 µM
same,GI50,[42],0.0808 µM
same,TGI,[42],0.354 µM
same,GI50,[43],0.3 µM
same,TGI,[43],1.48 µM
same,GI50,[44],0.479 µM
same,GI50,[45],0.966 µM
same,TGI,[45],4.12 µM
same,GI50,[46],0.015 µM
same,TGI,[46],0.162 µM
same,GI50,[47],0.311 µM
same,TGI,[47],1.26 µM
same,GI50,[48],0.099 µM
same,TGI,[48],0.46 µM
same,GI50,[49],0.04 µM
same,TGI,[49],0.315 µM
same,GI50,[50],0.47 µM
same,TGI,[50],5.69 µM
same,GI50,[51],0.142 µM
same,TGI,[51],0.529 µM
same,GI50,[52],0.162 µM
same,TGI,[52],1.06 µM
same,GI50,[53],0.644 µM
same,TGI,[53],5.56 µM
same,GI50,[54],0.146 µM
same,TGI,[54],1.82 µM
same,GI50,[55],0.942 µM
same,TGI,[55],3.26 µM
same,GI50,[56],0.142 µM
same,TGI,[56],0.466 µM
COC(=O)C(Cc1c(-c2[nH]c3ccccc3c2CC(NC(C)=O)C(=O)OC)[nH]c2ccccc12)NC(C)=O (stereo not given),TGI,[1],> 100 µM
same,TGI,[3],> 100 µM
same,TGI,[4],> 100 µM
same,TGI,[5],> 100 µM
same,TGI,[6],> 100 µM
same,TGI,[7],> 100 µM
same,TGI,[57],> 100 µM
same,TGI,[8],> 100 µM
same,TGI,[9],> 100 µM
same,TGI,[10],> 100 µM
same,TGI,[11],> 100 µM
same,TGI,[12],> 100 µM
same,TGI,[13],> 100 µM
same,TGI,[14],> 100 µM
same,TGI,[15],> 100 µM
same,TGI,[16],> 100 µM
same,TGI,[17],> 100 µM
same,TGI,[18],> 100 µM
same,TGI,[19],> 100 µM
same,TGI,[20],> 100 µM
same,TGI,[21],> 100 µM
same,TGI,[22],> 100 µM
same,TGI,[23],> 100 µM
same,TGI,[24],> 100 µM
same,TGI,[25],> 100 µM
same,TGI,[26],> 100 µM
same,TGI,[27],> 100 µM
same,TGI,[28],> 100 µM
same,TGI,[29],> 100 µM
same,TGI,[30],> 100 µM
same,TGI,[31],> 100 µM
same,TGI,[32],> 100 µM
same,TGI,[33],> 100 µM
same,TGI,[34],> 100 µM
same,TGI,[35],> 100 µM
same,TGI,[36],> 100 µM
same,TGI,[37],> 100 µM
same,TGI,[58],> 100 µM
same,TGI,[39],> 100 µM
same,TGI,[40],> 100 µM
same,TGI,[41],> 100 µM
same,TGI,[42],> 100 µM
same,TGI,[43],> 100 µM
same,TGI,[44],> 100 µM
same,TGI,[45],> 100 µM
same,TGI,[46],> 100 µM
same,TGI,[48],> 100 µM
same,TGI,[49],> 100 µM
same,TGI,[50],> 100 µM
same,TGI,[51],> 100 µM
same,TGI,[52],> 100 µM
same,TGI,[53],> 100 µM
same,TGI,[54],> 100 µM
same,TGI,[55],> 100 µM
same,TGI,[56],> 100 µM
O=C(Cn1c2ccc(Br)cc2c2nc3ccccc3nc21)NNC(=O)NC1CCCCC1,TGI,[1],> 100 µM
same,TGI,[2],> 100 µM
same,TGI,[3],> 100 µM
same,TGI,[4],> 100 µM
same,TGI,[5],> 100 µM
same,TGI,[6],> 100 µM
same,TGI,[7],> 100 µM
same,TGI,[57],> 100 µM
same,TGI,[8],> 100 µM
same,TGI,[9],> 100 µM
same,TGI,[10],> 100 µM
same,TGI,[11],> 100 µM
same,TGI,[12],41.7 µM
same,TGI,[13],> 100 µM
same,TGI,[14],> 100 µM
same,TGI,[15],> 100 µM
same,TGI,[16],> 100 µM
same,TGI,[17],> 100 µM
same,TGI,[20],> 100 µM
same,TGI,[21],> 100 µM
same,TGI,[22],> 100 µM
same,TGI,[23],> 100 µM
same,TGI,[24],> 100 µM
same,TGI,[25],> 100 µM
same,TGI,[26],> 100 µM
same,TGI,[28],> 100 µM
same,TGI,[29],> 100 µM
same,TGI,[30],> 100 µM
same,TGI,[31],> 100 µM
same,TGI,[33],78.8 µM
same,TGI,[34],> 100 µM
same,TGI,[36],> 100 µM
same,TGI,[37],> 100 µM
same,TGI,[58],8.09 µM
same,TGI,[38],42.9 µM
same,TGI,[39],73.5 µM
same,TGI,[40],76.1 µM
same,TGI,[59],> 100 µM
same,TGI,[41],> 100 µM
same,TGI,[42],> 100 µM
same,TGI,[43],86 µM
same,TGI,[44],> 100 µM
same,TGI,[45],> 100 µM
same,TGI,[47],> 100 µM
same,TGI,[48],> 100 µM
same,TGI,[49],> 100 µM
same,TGI,[50],67.1 µM
same,TGI,[51],> 100 µM
same,TGI,[52],> 100 µM
same,TGI,[53],> 100 µM
same,TGI,[54],> 100 µM
same,TGI,[56],> 100 µM
